Measurements published in US20100099561A1, “HETEROBICYCLIC ALKYLTHIO-BRIDGED ISOXAZOLINES” (E.I. DU PONT DE NEMOURS AND COMPANY, priority 2008, published 2010).

Tests used:
Format in all cases: in vivo
[1] = tested on: pigweed (Amaranthus retroflexus); test: Test A preemergence, pigweed; details: 0 to 100 scale (0 no effect, 100 complete control)
In short: (§1)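 Visual injury scored 0 (no effect) to 100 (complete control) against untreated plants roughly ten days after greenhouse treatment. Postemergence sprays hit one- to two-leaf plants 2–10 cm high; preemergence was a directed spray onto loam–sand soil, both using surfactant-containing solvent formulations.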

corn (Zea mays) [2] = test: Test A preemergence, corn; details: 0 to 100 scale (0 no effect, 100 complete control)
In short: as §1

[3] = tested on: morningglory (Ipomoea spp.); test: Test A postemergence, morningglory; details: 0 to 100 scale (0 no effect, 100 complete control)
In short: as §1

[4] = tested on: velvetleaf (Abutilon theophrasti); test: Test A postemergence, velvetleaf; details: 0 to 100 scale (0 no effect, 100 complete control)
In short: as §1

[5] = tested on: barnyardgrass (Echinochloa crus-galli); test: Test A preemergence, barnyardgrass; details: 0 to 100 scale (0 no effect, 100 complete control)
In short: as §1

[6] = tested on: wheat (Triticum aestivum); test: Test A preemergence, wheat; details: 0 to 100 scale (0 no effect, 100 complete control)
In short: as §1

[7] = tested on: ducksalad (Heteranthera limosa); test: Test B flooded paddy test, ducksalad; details: Flood, scale 0 to 100
In short: (§2)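 Step one: raise plants to 2 leaves. Step two: flood pots 3 cm over the soil and apply compound into the water, keeping this depth. Step three: after 13–15 greenhouse days, score visually versus controls, 0–100, where 100 means complete control.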

[8] = tested on: giant foxtail (Setaria faberi); test: Test A preemergence, giant foxtail; details: 0 to 100 scale (0 no effect, 100 complete control)
In short: as §1

rice (Oryza sativa) = test: Test B flooded paddy test, rice; details: Flood, scale 0 to 100
In short: as §2

corn (Zea mays) [9] = test: Test A postemergence, corn; details: 0 to 100 scale (0 no effect, 100 complete control)
In short: as §1

[10] = tested on: velvetleaf (Abutilon theophrasti); test: Test A preemergence, velvetleaf; details: 0 to 100 scale (0 no effect, 100 complete control)
In short: as §1

[11] = tested on: umbrella sedge (Cyperus difformis); test: Test B flooded paddy test, umbrella sedge; details: Flood, scale 0 to 100
In short: as §2

[12] = tested on: barnyardgrass (Echinochloa crus-galli); test: Test A postemergence, barnyardgrass; details: 0 to 100 scale (0 no effect, 100 complete control)
In short: as §1

[13] = tested on: morningglory (Ipomoea spp.); test: Test A preemergence, morningglory; details: 0 to 100 scale (0 no effect, 100 complete control)
In short: as §1

[14] = tested on: large crabgrass (Digitaria sanguinalis); test: Test A preemergence, large crabgrass; details: 0 to 100 scale (0 no effect, 100 complete control)
In short: as §1

[15] = tested on: wheat (Triticum aestivum); test: Test A postemergence, wheat; details: 0 to 100 scale (0 no effect, 100 complete control)
In short: as §1

[16] = tested on: large crabgrass (Digitaria sanguinalis); test: Test A postemergence, large crabgrass; details: 0 to 100 scale (0 no effect, 100 complete control)
In short: as §1

[17] = tested on: giant foxtail (Setaria faberi); test: Test A postemergence, giant foxtail; details: 0 to 100 scale (0 no effect, 100 complete control)
In short: as §1

[18] = tested on: barnyardgrass (Echinochloa crus-galli); test: Test B flooded paddy test, barnyardgrass; details: Flood
In short: as §2

[19] = tested on: pigweed (Amaranthus retroflexus); test: Test A postemergence, pigweed; details: 0 to 100 scale (0 no effect, 100 complete control)
In short: as §1

[20] = 250 g ai/ha, scale 0 to 100 (0 no effect, 100 complete control)

## CC1(C)CC([S+]([O-])Cc2c(C(F)(F)F)nc3cnccn3c2=O)=NO1 (stereo not shown) [Compound 54]
[1]; 125 g ai/ha
  Plant response rating, Pigweed: 0
[1]; 500 g ai/ha
  Plant response rating, Pigweed: 0
Corn (Zea mays) [2]; 125 g ai/ha
  Plant response rating, Corn: 0
Corn (Zea mays) [2]; 500 g ai/ha
  Plant response rating, Corn: 0
[3]; 125 g ai/ha
  Plant response rating, Morningglory: 0
[3]; 500 g ai/ha
  Plant response rating, Morningglory: 10
[4]; 125 g ai/ha
  Plant response rating, Velvetleaf: 0
[4]; 500 g ai/ha
  Plant response rating, Velvetleaf: 0
[5]; 125 g ai/ha
  Plant response rating, Barnyardgrass: 0
[5]; 500 g ai/ha
  Plant response rating, Barnyardgrass: 0
[6]; 125 g ai/ha
  Plant response rating, Wheat: 0
[6]; 500 g ai/ha
  Plant response rating, Wheat: 0
[7]; 62 g ai/ha
  Plant response rating, Ducksalad: 0
[7]; 250 g ai/ha
  Plant response rating, Ducksalad: 0
[8]; 125 g ai/ha
  Plant response rating, Foxtail, Giant: 0
[8]; 500 g ai/ha
  Plant response rating, Foxtail, Giant: 0
Rice (Oryza sativa); 62 g ai/ha
  Plant response rating, Rice: 0
Rice (Oryza sativa); 250 g ai/ha
  Plant response rating, Rice: 0
Corn (Zea mays) [9]; 125 g ai/ha
  Plant response rating, Corn: 0
Corn (Zea mays) [9]; 500 g ai/ha
  Plant response rating, Corn: 0
[10]; 125 g ai/ha
  Plant response rating, Velvetleaf: 0
[10]; 500 g ai/ha
  Plant response rating, Velvetleaf: 0
[11]; 62 g ai/ha
  Plant response rating, Sedge, Umbrella: 0
[11]; 250 g ai/ha
  Plant response rating, Sedge, Umbrella: 0
[12]; 125 g ai/ha
  Plant response rating, Barnyardgrass: 0
[12]; 500 g ai/ha
  Plant response rating, Barnyardgrass: 0
[13]; 125 g ai/ha
  Plant response rating, Morningglory: 0
[13]; 500 g ai/ha
  Plant response rating, Morningglory: 0
[14]; 125 g ai/ha
  Plant response rating, Crabgrass, Large: 0
[14]; 500 g ai/ha
  Plant response rating, Crabgrass, Large: 0
[15]; 125 g ai/ha
  Plant response rating, Wheat: 0
[15]; 500 g ai/ha
  Plant response rating, Wheat: 0
[16]; 125 g ai/ha
  Plant response rating, Crabgrass, Large: 0
[16]; 500 g ai/ha
  Plant response rating, Crabgrass, Large: 20
[17]; 125 g ai/ha
  Plant response rating, Foxtail, Giant: 0
[17]; 500 g ai/ha
  Plant response rating, Foxtail, Giant: 50
[18]; 62 g ai/ha, scale 0 to 100
  Plant response rating, Barnyardgrass: 0
[18]; [20]
  Plant response rating, Barnyardgrass: 0
[19]; 125 g ai/ha
  Plant response rating, Pigweed: 0
[19]; 500 g ai/ha
  Plant response rating, Pigweed: 0

## CC1(C)CC(S(=O)(=O)Cc2c(C(F)(F)F)nc3n(c2=O)CCCCC3)=NO1 [Compound 33]
[1]; 125 g ai/ha
  Plant response rating, Pigweed: 10
[1]; 500 g ai/ha
  Plant response rating, Pigweed: 100
Corn (Zea mays) [2]; 125 g ai/ha
  Plant response rating, Corn: 0
Corn (Zea mays) [2]; 500 g ai/ha
  Plant response rating, Corn: 0
[3]; 125 g ai/ha
  Plant response rating, Morningglory: 40
[3]; 500 g ai/ha
  Plant response rating, Morningglory: 60
[4]; 125 g ai/ha
  Plant response rating, Velvetleaf: 0
[4]; 500 g ai/ha
  Plant response rating, Velvetleaf: 20
[5]; 125 g ai/ha
  Plant response rating, Barnyardgrass: 40
[5]; 500 g ai/ha
  Plant response rating, Barnyardgrass: 90
[6]; 125 g ai/ha
  Plant response rating, Wheat: 0
[6]; 500 g ai/ha
  Plant response rating, Wheat: 50
[7]; 31 g ai/ha
  Plant response rating, Ducksalad: 0
[7]; 62 g ai/ha
  Plant response rating, Ducksalad: 0
[7]; 125 g ai/ha
  Plant response rating, Ducksalad: 20
[7]; 250 g ai/ha
  Plant response rating, Ducksalad: 50
[8]; 125 g ai/ha
  Plant response rating, Foxtail, Giant: 90
[8]; 500 g ai/ha
  Plant response rating, Foxtail, Giant: 100
Rice (Oryza sativa); 31 g ai/ha
  Plant response rating, Rice: 0
Rice (Oryza sativa); 62 g ai/ha
  Plant response rating, Rice: 0
Rice (Oryza sativa); 125 g ai/ha
  Plant response rating, Rice: 0
Rice (Oryza sativa); 250 g ai/ha
  Plant response rating, Rice: 25
Corn (Zea mays) [9]; 125 g ai/ha
  Plant response rating, Corn: 0
Corn (Zea mays) [9]; 500 g ai/ha
  Plant response rating, Corn: 0
[10]; 125 g ai/ha
  Plant response rating, Velvetleaf: 30
[10]; 500 g ai/ha
  Plant response rating, Velvetleaf: 60
[11]; 31 g ai/ha
  Plant response rating, Sedge, Umbrella: 0
[11]; 62 g ai/ha
  Plant response rating, Sedge, Umbrella: 20
[11]; 125 g ai/ha
  Plant response rating, Sedge, Umbrella: 60
[11]; 250 g ai/ha
  Plant response rating, Sedge, Umbrella: 80
[12]; 125 g ai/ha
  Plant response rating, Barnyardgrass: 50
[12]; 500 g ai/ha
  Plant response rating, Barnyardgrass: 80
[13]; 125 g ai/ha
  Plant response rating, Morningglory: 20
[13]; 500 g ai/ha
  Plant response rating, Morningglory: 50
[14]; 125 g ai/ha
  Plant response rating, Crabgrass, Large: 90
[14]; 500 g ai/ha
  Plant response rating, Crabgrass, Large: 100
[15]; 125 g ai/ha
  Plant response rating, Wheat: 0
[15]; 500 g ai/ha
  Plant response rating, Wheat: 40
[16]; 125 g ai/ha
  Plant response rating, Crabgrass, Large: 50
[16]; 500 g ai/ha
  Plant response rating, Crabgrass, Large: 80
[17]; 125 g ai/ha
  Plant response rating, Foxtail, Giant: 70
[17]; 500 g ai/ha
  Plant response rating, Foxtail, Giant: 80
[18]; 31 g ai/ha, scale 0 to 100
  Plant response rating, Barnyardgrass: 0
[18]; 62 g ai/ha, scale 0 to 100
  Plant response rating, Barnyardgrass: 0
[18]; 125 g ai/ha, scale 0 to 100
  Plant response rating, Barnyardgrass: 0
[18]; [20]
  Plant response rating, Barnyardgrass: 35
[19]; 125 g ai/ha
  Plant response rating, Pigweed: 20
[19]; 500 g ai/ha
  Plant response rating, Pigweed: 50
